Measurements reported in ChEMBL document CHEMBL3507680, “University of Dundee, Gates Library screen for HepG2 cell viability”.

test: Human HepG2 cell viability assay in 384 well format; type: toxicity, cell-based; design: dose 125 nL, time 70.5 hour; cytotoxicity at 70.5 h: concentration not given beside the values; conditions: HepG2 cells, read-out: Inhibition

Row | Structure (SMILES) | cytotoxicity at 70.5 h [%]
1 | O=C(c1ccc2c(c1)[nH]c(=O)n2C1CCCC1)N1CCC1 | -3.8
2 | Cc1csc(N2CCN(C(=O)c3ccc(C)s3)CC2)n1 | 5.75
3 | Cc1ocnc1C(=O)N1CCCN(Cc2cscn2)CC1 | 21.9
4 | COCCCNC(=O)CN1CCOC(c2ccccc2)C1 (centres undefined) | 15.8
5 | CCN(CC(=O)NCc1nc(C2CC2)no1)Cc1ccc(Cl)cc1 | -15.6
6 | O=C(c1ccoc1)N1CCc2c(COCC3CC3)cncc2C1 | 14.9
7 | Cc1ccccc1CS(=O)(=O)NCCCN1CCCC1 | -2.2
8 | O=C(C1CC1)N1CCC2(CC1)CNc1ccc(F)cc12 | -10.9
9 | FC(F)Oc1ccccc1CNCc1cc(Br)c2c(c1)OCO2 | -7.29
10 | Cc1cc(C)n(CC2CN(CCOc3ccccc3F)CCO2)n1 (centres undefined) | -2.73
11 | Cc1cc(C(F)(F)F)c2c(C3CCCN(C(=O)C4CC4)C3)noc2n1 (centres undefined) | -8.63
12 | CC(NC(=O)NCCc1cnn(C)c1)c1ccc(Cl)s1 (centres undefined) | -15
13 | O=C(NCc1cc2n(n1)CCCNC2)c1cn2cc(Cl)ccc2n1 | -2.1
14 | Cn1ncc(N2CCC(CNC3CC(C)(C)CC(C)(C)C3)C2)cc1=O (centres undefined) | 7.5
15 | CCCN1C[C@H]2CC[C@@H]1CN(c1nnc(C(C)C)s1)C2 | 27.1
16 | O=c1[nH]c(-c2cccnc2)nc2c1CCN(S(=O)(=O)N1CCCC1)C2 | -12
17 | Cc1nsc(C(=O)N2CCc3ccccc3C2)n1 | 28.2
18 | Cc1cc2cc(CNC3CCN(S(C)(=O)=O)CC3)oc2cc1C | -1.78
19 | CCc1ncc(C(=O)N2CCN(c3nc(C)cc(OC)n3)CC2)s1 | 15.8
20 | O=C(c1ccno1)N1CCn2cc(CN3CCCCC3)nc2C1 | -2.37
21 | O=C(NCCO)c1ccn(-c2ccc3ccccn23)n1 | 25.4
22 | Cc1cc(C2CCC2)nc(N2CCC3(CCCN(C)C3=O)C2)n1 (centres undefined) | -10.6
23 | Cc1nn(C)c(C)c1C1CCCN1C(=O)CCc1cscn1 (centres undefined) | -6.08

Row | Structure (SMILES) | cytotoxicity at 70.5 h [%]
24 | CCN(CC)C(=O)[C@@H]1C[C@@H](n2cc(-c3ccccn3)nn2)CN1 | -3.65
25 | O=C(Cn1c(=O)nc2n1C(=O)N(c1ccccc1)C2)NC1CCCCC1 | -7.65
26 | COCC1CCN(C(=O)c2cn(Cc3cccc(C(F)(F)F)c3)nn2)C1 (centres undefined) | -12.5
27 | Cc1ccc2c(c1)C(=O)NCC1(CCN(Cc3ccccc3)CC1)O2 | -6.17
28 | O=C(CN1CCCC1Cn1cccn1)NCCC1=CCCCC1 (centres undefined) | -9.89
29 | c1cnc2[nH]c(C3CCCC3)c(CN3CCCCC3)c2c1 | -7.43
30 | CC1CCCN(C(=O)Cn2cc(I)cn2)C1 (centres undefined) | -3.76
31 | Cc1ccc(O)c(C(=O)N2CCOCC2c2c(C)nn(C)c2C)c1 (centres undefined) | -2.1
32 | Cc1noc(C)c1-c1nc(C2CCCN(C(=O)CN)C2)ccc1CO (centres undefined) | -11.3
33 | CN(C)S(=O)(=O)N1CC[C@@H]2CN(Cc3cnn(C)c3)C[C@@H]2C1 | 32.1
34 | CCN1CCCC(c2c(-c3ccccc3)ncn2Cc2cccnc2)C1 (centres undefined) | -9.92
35 | Cc1ccc(S(=O)(=O)N2CC[C@H]3CO[C@H](CN(C)C)[C@H]3C2)cc1 | -6.81
36 | O=C(NCCNc1ncccn1)N1CCCC1c1ccc(F)cc1 (centres undefined) | -9.37
37 | CC(Cn1cccn1)NCc1csc(-c2ccccc2F)n1 (centres undefined) | -15.5
38 | COCc1ccc(C(=O)N2CCN(CC=C(C)C)[C@@H]3CS(=O)(=O)C[C@@H]32)o1 | -0.472
39 | O=C(NCCN1CCOCC1)c1ccc(-c2ccccc2)[nH]c1=O | -2.93
40 | O=C(CCC(=O)c1cccs1)NC1(C(=O)NCC2CC2)CCCC1 | -1.16
41 | COCc1nc(CN2CC(Cc3ccccc3)CC2=O)no1 (centres undefined) | -8.93
42 | COc1cc2cc3c(nc2cc1OC)OCCN(Cc1cccs1)C3 | 28
43 | COc1ccccc1C(=O)N1Cc2cc(C)ccc2OCC1CN(C)C (centres undefined) | -8.39
44 | N#CCSCCCN1CCCN(C(=O)c2ccccc2)CC1 | -8.59
45 | COCCN1C(=O)CCC12CCN(C(=O)CNC(C)=O)CC2 | -8.47
46 | COc1cccc(CNc2cc(C)nc(-c3ccncc3)n2)c1OC | -6.44

Row | Structure (SMILES) | cytotoxicity at 70.5 h [%]
47 | O=C(C(CNCc1ccsc1)c1ccccc1)N1CCOCC1 (centres undefined) | -2.8
48 | COc1ccc(C(C)CCNC2CCN(c3ccccn3)CC2)cc1 (centres undefined) | 22
49 | Cc1[nH]ncc1C(=O)NCC1CCC2(CC1)OCCO2 | -5.66
50 | O=c1[nH]c(C2CCOC2)nc2cc(F)c(F)cc12 (centres undefined) | -10.3
51 | COCCNC(=O)c1ccc2c(=O)n3c(nc2c1)CCCCCC3 | 7.92
52 | NC(=O)NC(=O)CCSCc1cc(F)cc2cccnc12 | -29.1
53 | O=C(c1ccccn1)N1CCN(c2ccc(-c3cccnc3)nn2)CC1 | -11.4
54 | Cc1ccc([C@@H]2CN(C(=O)CCc3ccco3)C[C@H]2N(C)C)cc1 | 0.00383
55 | CC(C)(C)CN1CCN2C(=O)N(C3CCCCC3)C[C@H]2C1 | -11.1
56 | CCc1nc(CC2CN(c3ncnc4nc(C)cc(C)c34)CCO2)no1 (centres undefined) | -19
57 | Cc1cnc(N2CCCn3c(nnc3CN(C)C(C)C)C2)nc1 | -1.83
58 | CC(C)N1[C@@H](C(=O)NCC2CC2)C[C@@H]2CN(Cc3ccco3)C[C@@H]21 | -13.6
59 | Cc1cnc(N2CC[C@H]3[C@@H]2CCC(=O)N3c2ccccc2)nc1 | 5.23
60 | COc1cccnc1-c1ccc(F)c2c1OC(CN)C2 (centres undefined) | 3.56
61 | Cc1ccccc1SCC(=O)N[C@H]1CC[C@H](n2cnnc2)CC1 | -5.74
62 | CNC(=O)[C@H]1C[C@@H]2CN(C(=O)c3ccco3)C[C@@H]2N1S(C)(=O)=O | -7.68
63 | CN1CCN(C(=O)c2cccs2)Cc2ccccc21 | -0.544
64 | CNC(=O)CNC(=O)Nc1cc(-c2ccccc2)ns1 | 29.7
65 | CC(C)N(C)Cc1cnc2n1CCN(C(=O)c1cccs1)C2 | -15.9
66 | COc1ccccc1C(=O)N(C)C1CCN(c2ccccn2)CC1 | -0.00253
67 | Cc1ncsc1C(=O)NCc1ccc(-c2n[nH]cc2C(=O)N(C)C)cc1 | -1.47
68 | Cn1ncnc1NCc1ccccc1Cl | -15.3
69 | CN(CC(=O)N1CC(C)(C)[C@@](C)(O)C1)Cc1ccncc1 | -6.29

Row | Structure (SMILES) | cytotoxicity at 70.5 h [%]
70 | COc1cc(N2CC[C@H](O)[C@@H]2Cc2cccnc2)ncn1 | -10.8
71 | Cc1cnc(N2C[C@@H]3CN(Cc4ccco4)CCC[C@]3(C(=O)O)C2)nc1 | -5.9
72 | CC(C)N1CCC(c2n[nH]cc2-c2ccnc(N)c2)C1 (centres undefined) | 2.17
73 | c1ccc(OCCNC2=NCCCN2)cc1 | 24.2
74 | COc1ccc(Nc2c[nH]c(=O)[nH]c2=O)cc1 | 4.35
75 | COc1ccccc1CC1CCCN(C(=O)c2n[nH]c3c2CCC3)C1 (centres undefined) | -3.07
76 | c1cncc(CN2CCC(NCCc3ccc4c(c3)OCO4)CC2)c1 | 0.189
77 | N#CCCN(CC1CCCO1)C(=O)c1ccc(C#N)cc1 (centres undefined) | -2.77
78 | O=C1CC2(CCCNC2)C(=O)N1Cc1ccc(F)cc1 (centres undefined) | -10.9
79 | NC(=O)CN1CCCC(CCCc2ccccn2)(C(N)=O)C1 (centres undefined) | -3
80 | CC(NC(=O)NCCCn1ccnc1)c1nncn1C (centres undefined) | -2.89
81 | Cn1cnc(S(=O)(=O)NCC2(O)CCOc3ccccc32)c1 (centres undefined) | -4.65
82 | CCCn1nc2c(cc1=O)CN(CC1CCCCO1)CC2 (centres undefined) | -1.08
83 | CN(C)CCCNCC1CCOC(C)(C)C1 (centres undefined) | -3.4
84 | O=C(C1CCC2(CCN(c3ncccn3)CC2)CO1)N1CCCC1 (centres undefined) | -5.27
85 | Cc1c(C(=O)NC2(C#N)CCSC2)cnn1-c1ccccc1Cl (centres undefined) | 1.06
86 | c1ncn(CC2CCCN(CC3CCCCC3)C2)n1 (centres undefined) | -7.32
87 | Cc1cc(C2CCC2)nc(N(C)CCc2ccccn2)n1 | -5.51
88 | Cc1ccc(C(C)(O)CNC(=O)NCCc2ccc3c(c2)CCO3)o1 (centres undefined) | 26.1
89 | CCn1cc(CN2CCCN(C(=O)Cc3cccs3)CC2)cn1 | 28
90 | Cc1nc(C2CCCN(C(=O)c3cc(Cl)c4c(c3)OCO4)C2)no1 (centres undefined) | -5.22
91 | CNCC(=O)N1CCCC1c1cncc(Oc2ccc(F)cc2)n1 (centres undefined) | -2.91
92 | Cn1c(C(N)=O)ccc1-c1ccccc1 | 6.66

Row | Structure (SMILES) | cytotoxicity at 70.5 h [%]
93 | CC(=O)N1CCCN(C(C)C(=O)Nc2ccnn2C(C)C)CC1 (centres undefined) | -3.26
94 | Cc1ccc(N2CCN(C(=O)C(O)c3cccc(Cl)c3)CC2=O)cc1 (centres undefined) | -5.15
95 | O=C(c1ccc2c(c1)CCO2)N1CCN(c2ccc(Cl)cn2)CC1 | -0.811
96 | Cc1noc(C)c1CN1CCO[C@H]2[C@H](Oc3ccccn3)CC[C@@H]21 | -0.309
97 | Cc1cnn(CC(=O)Nc2cc(-n3nnnc3C3CC3)ccc2F)c1 | -7.79
98 | COCC(=O)N1CCC(c2nc3ccc(-c4ccncc4)cn3n2)CC1 | -6.45
99 | c1ccc(CCN2CCN(C3CCOC4(CCOCC4)C3)CC2)cc1 (centres undefined) | -5.08
100 | CC(CCc1ccccc1)NC(=O)Nc1cnn(CC(N)=O)c1 (centres undefined) | -2.53
101 | Fc1ccc(NCc2nnsc2Cl)c(OC(F)F)c1 | 0.194
102 | CCN(CC)S(=O)(=O)N1CCCC(c2nccn2Cc2cccnc2)C1 (centres undefined) | -5.79
103 | Cn1cnnc1C1CCN(C(=O)Cc2ccc3c(c2)OCCO3)CC1 | -2.32
104 | Cc1cccnc1NC(=O)C1CCN(C(C)C(=O)NC(C)(C)C)CC1 (centres undefined) | -10.6
105 | CS(=O)(=O)CCSc1n[nH]c(-c2ccc3c(c2)CCC3)n1 | 3.91
106 | CCOCC1CN(C(=O)c2ccoc2C)Cc2cnn(C)c21 (centres undefined) | 28.1
107 | CS(=O)(=O)N1CC(c2nc[nH]n2)c2cc(C(=O)NC3CCCC3)ccc21 (centres undefined) | -20.4
108 | O=C(NCC1CCOC1)Nc1ccc(Oc2ccc(F)cc2)nc1 (centres undefined) | 15.8
109 | Cc1ccc(-c2n[nH]cc2CNCC2CCS(=O)(=O)C2)o1 (centres undefined) | 11.2
110 | COCC1c2c(cnn2CC2CCOCC2)CCN1Cc1ccoc1 (centres undefined) | 3.09
111 | CC(C)c1nn(C)c(N2CCOCC2)c1CNCC(=O)N(C)C | -6.07
112 | CC(=O)N1CC2(CCN(C(=O)c3ccc4c(c3)OCCO4)CC2)C1 | 20.2
113 | CNc1ncc(-c2ccc(NC(=O)[C@@H]3CCCCN3)cc2)cn1 | -1.05
114 | Cc1cccc(-c2nnc(C(C)NCCn3cc(C)cn3)o2)c1 (centres undefined) | -7.5
